Data on twelve compounds can be found in US20230295197A1, “STAT5 and STAT6 Degraders and Uses Thereof” (REGENTS OF THE UNIVERSITY OF MICHICAN, priority 2022, published 2023).

Molecules are shown by their SMILES.

By DC50 is commonly meant the concentration giving 50% degradation.

The target in the first assay is T1, STAT6 (Homo sapiens, UniProt P42226).
T1 construct: endogenous in cells; host or cells: MOLM-16, KU-812, SKNO1, MB231, L1236
T1 sequence (P42226 1-847): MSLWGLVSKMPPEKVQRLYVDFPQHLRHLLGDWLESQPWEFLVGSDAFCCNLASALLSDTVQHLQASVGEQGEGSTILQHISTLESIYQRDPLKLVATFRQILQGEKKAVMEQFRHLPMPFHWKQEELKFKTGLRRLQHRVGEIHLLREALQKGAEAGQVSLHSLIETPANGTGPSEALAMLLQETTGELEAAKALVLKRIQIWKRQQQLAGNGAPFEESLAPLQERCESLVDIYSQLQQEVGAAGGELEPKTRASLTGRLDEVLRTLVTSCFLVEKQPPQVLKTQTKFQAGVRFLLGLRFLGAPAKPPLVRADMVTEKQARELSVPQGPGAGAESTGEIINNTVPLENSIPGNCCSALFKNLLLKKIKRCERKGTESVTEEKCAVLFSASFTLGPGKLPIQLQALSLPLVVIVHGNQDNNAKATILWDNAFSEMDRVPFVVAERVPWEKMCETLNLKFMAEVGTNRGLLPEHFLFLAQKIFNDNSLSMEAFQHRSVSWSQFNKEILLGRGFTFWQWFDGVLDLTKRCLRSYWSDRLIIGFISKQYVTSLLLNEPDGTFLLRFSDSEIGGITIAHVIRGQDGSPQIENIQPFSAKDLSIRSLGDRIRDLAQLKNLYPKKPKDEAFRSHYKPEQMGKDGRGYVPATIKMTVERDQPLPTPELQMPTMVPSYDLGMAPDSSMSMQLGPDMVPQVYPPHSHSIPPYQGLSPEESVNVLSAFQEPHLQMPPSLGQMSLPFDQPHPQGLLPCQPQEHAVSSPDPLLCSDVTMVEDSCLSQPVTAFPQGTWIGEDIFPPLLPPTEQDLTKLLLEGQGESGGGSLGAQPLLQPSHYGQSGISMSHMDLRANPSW
Kind of assay: Immunoblotting (Western blot) analysis of STAT6 degradation efficiency of degraders in treated cells. Type of assay: cell-based. To be noted: L1236 cells, read-out: DC50 S6 L1236. In outline:
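Protein levels of STAT5 and STAT6 were assessed in cells cultured at 37 °C in 10% FBS medium after compound exposure, by quantitative fluorescent Western blotting normalised to equal loading and referenced to GAPDH.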
Take `CC(C)(C)[C@H](NC(=O)c1cc2cc(C(F)(F)P(=O)(O)O)ccc2s1)C(=O)N1C[C@@H](OCCCCCCC#Cc2cccc3c2CN(C2CCC(=O)NC2=O)C3=O)C[C@H]1C(=O)N1CCO[C@H](c2ccccc2)C1` (stereo partly drawn) [Compound 587, ((2-(((2S)-1-((2S,4S)-4-((8-(2-(2,6-dioxopiperidin-3-yl)-1-oxoisoindolin-4-yl)oct-7-yn-1-yl)oxy)-2-((R)-2-phenylmorpholine-4-carbonyl)pyrrolidin-1-yl)-3,3-dimethyl-1-oxobutan-2-yl)carbamoyl)benzo[b]thiophen-5-yl)difluoromethyl)phosphonic acid]: the DC50 was in the range of 0.1 to 1 µM. On the same count and under the same terms, as for `Cc1ncsc1-c1ccc([C@H](C)NC(=O)[C@@H]2C[C@@H](O)CN2C(=O)[C@@H](NC(=O)CCCCCCNC(=O)COc2ccc3c(c2)CN(C(=O)[C@@H](NC(=O)c2cc4cc(C(F)(F)P(=O)(O)O)ccc4s2)C(C)(C)C)[C@H](C(=O)N2CCO[C@H](c4ccccc4)C2)C3)C(C)(C)C)cc1` [Compound 466, (difluoro(2-(((S)-1-((S)-7-(2-((7-(((S)-1-((2S,4R)-4-hydroxy-2-(((S)-1-(4-(4-methylthiazol-5-yl)phenyl)ethyl)carbamoyl)pyrrolidin-1-yl)-3,3-dimethyl-1-oxobutan-2-yl)amino)-7-oxoheptyl)amino)-2-oxoethoxy)-3-((R)-2-phenylmorpholine-4-carbonyl)-3,4-dihydroisoquinolin-2(1H)-yl)-3,3-dimethyl-1-oxobutan-2-yl)carbamoyl)benzo[b]thiophen-5-yl)methyl)phosphonic acid], the figure is more than 10 µM.

The same assay, now with this note: MOLM-16 cells, class symbols, read-out: DC50 S6 MOLM-16.
In the case of `CC(C)(C)[C@H](NC(=O)c1cc2cc(C(F)(F)P(=O)(O)O)ccc2s1)C(=O)N1C[C@@H](OCC(=O)NCCCC#Cc2cccc3c2C(=O)N(C2CCC(=O)NC2=O)C3=O)C[C@H]1C(=O)N1CCO[C@H](c2ccccc2)C1` (stereo partly drawn) [Compound 483, ((2-(((2S)-1-((2S,4S)-4-(2-((5-(2-(2,6-dioxopiperidin-3-yl)-1,3-dioxoisoindolin-4-yl)pent-4-yn-1-yl)amino)-2-oxoethoxy)-2-((R)-2-phenylmorpholine-4-carbonyl)pyrrolidin-1-yl)-3,3-dimethyl-1-oxobutan-2-yl)carbamoyl)benzo[b]thiophen-5-yl)difluoromethyl)phosphonic acid], the DC50 was in the range of 1 to 10 µM. Still for that read-out and setting: in the case of `CC(C)(C)[C@H](NC(=O)c1cc2cc(C(F)(F)P(=O)(O)O)ccc2s1)C(=O)N1C[C@@H](OCC(=O)NCC#Cc2ccc3c(c2)C(=O)N(C2CCC(=O)NC2=O)C3=O)C[C@H]1C(=O)N1CCO[C@H](c2ccccc2)C1` (stereo partly drawn) [Compound 480, ((2-(((2S)-1-((2S,4S)-4-(2-((3-(2-(2,6-dioxopiperidin-3-yl)-1,3-dioxoisoindolin-5-yl)prop-2-yn-1-yl)amino)-2-oxoethoxy)-2-((R)-2-phenylmorpholine-4-carbonyl)pyrrolidin-1-yl)-3,3-dimethyl-1-oxobutan-2-yl)carbamoyl)benzo[b]thiophen-5-yl)difluoromethyl)phosphonic acid] it was more than 10 µM; in that of `CC(C)(C)[C@H](NC(=O)c1cc2cc(C(F)(F)P(=O)(O)O)ccc2s1)C(=O)N1C[C@@H](OCCCCC#Cc2cccc3c2CN(C2CCC(=O)NC2=O)C3=O)C[C@H]1C(=O)N1CCO[C@H](c2ccccc2)C1` (stereo partly drawn) [Compound 594, ((2-(((2S)-1-((2S,4S)-4-((6-(2-(2,6-dioxopiperidin-3-yl)-1-oxoisoindolin-4-yl)hex-5-yn-1-yl)oxy)-2-((R)-2-phenylmorpholine-4-carbonyl)pyrrolidin-1-yl)-3,3-dimethyl-1-oxobutan-2-yl)carbamoyl)benzo[b]thiophen-5-yl)difluoromethyl)phosphonic acid], less than 0.1 µM. Take `CC(C)(C)[C@H](NC(=O)c1cc2cc(C(F)(F)P(=O)(O)O)ccc2s1)C(=O)N1CCN(C(=O)CC(=O)NCCCCCCCCCC#Cc2ccc3c(c2)C(=O)N(C2CCC(=O)NC2=O)C3=O)C[C@H]1C(=O)N1CCC[C@H](c2ccccc2)C1` (stereo partly drawn) [Compound 534, ((2-(((2S)-1-((2S)-4-(3-((11-(2-(2,6-dioxopiperidin-3-yl)-1,3-dioxoisoindolin-5-yl)undec-10-yn-1-yl)amino)-3-oxopropanoyl)-2-((R)-3-phenylpiperidine-1-carbonyl)piperazin-1-yl)-3,3-dimethyl-1-oxobutan-2-yl)carbamoyl)benzo[b]thiophen-5-yl)difluoromethyl)phosphonic acid]: the DC50 was more than 10 µM. Still for that read-out and setting: in the case of `CC(C)(C)[C@H](NC(=O)c1cc2cc(C(F)(F)P(=O)(O)O)ccc2s1)C(=O)N1C[C@@H](OCCCCCCC#Cc2cccc3c2CN(C2CCC(=O)NC2=O)C3=O)C[C@H]1C(=O)N1CCO[C@H](c2ccccc2)C1` (stereo partly drawn) [Compound 587, ((2-(((2S)-1-((2S,4S)-4-((8-(2-(2,6-dioxopiperidin-3-yl)-1-oxoisoindolin-4-yl)oct-7-yn-1-yl)oxy)-2-((R)-2-phenylmorpholine-4-carbonyl)pyrrolidin-1-yl)-3,3-dimethyl-1-oxobutan-2-yl)carbamoyl)benzo[b]thiophen-5-yl)difluoromethyl)phosphonic acid] it was less than 0.1 µM; in that of `Cc1ncsc1-c1ccc([C@H](C)NC(=O)[C@@H]2C[C@@H](O)CN2C(=O)[C@@H](NC(=O)CCCCCCNC(=O)COc2ccc3c(c2)CN(C(=O)[C@@H](NC(=O)c2cc4cc(C(F)(F)P(=O)(O)O)ccc4s2)C(C)(C)C)[C@H](C(=O)N2CCO[C@H](c4ccccc4)C2)C3)C(C)(C)C)cc1` [Compound 466, (difluoro(2-(((S)-1-((S)-7-(2-((7-(((S)-1-((2S,4R)-4-hydroxy-2-(((S)-1-(4-(4-methylthiazol-5-yl)phenyl)ethyl)carbamoyl)pyrrolidin-1-yl)-3,3-dimethyl-1-oxobutan-2-yl)amino)-7-oxoheptyl)amino)-2-oxoethoxy)-3-((R)-2-phenylmorpholine-4-carbonyl)-3,4-dihydroisoquinolin-2(1H)-yl)-3,3-dimethyl-1-oxobutan-2-yl)carbamoyl)benzo[b]thiophen-5-yl)methyl)phosphonic acid], more than 10 µM.

As for `CC(C)(C)[C@H](NC(=O)c1cc2cc(C(F)(F)P(=O)(O)O)ccc2s1)C(=O)N1CCN(C(=O)CC(=O)NCCCCC#Cc2cccc3c2C(=O)N(C2CCC(=O)NC2=O)C3=O)C[C@H]1C(=O)N1CCO[C@H](c2ccccc2)C1` (stereo partly drawn) [Compound 513, ((2-(((2S)-1-((2S)-4-(3-((6-(2-(2,6-dioxopiperidin-3-yl)-1,3-dioxoisoindolin-4-yl)hex-5-yn-1-yl)amino)-3-oxopropanoyl)-2-((R)-2-phenylmorpholine-4-carbonyl)piperazin-1-yl)-3,3-dimethyl-1-oxobutan-2-yl)carbamoyl)benzo[b]thiophen-5-yl)difluoromethyl)phosphonic acid], the DC50 was more than 10 µM. The same measure, in the same setting: as for `CC(C)(C)[C@H](NC(=O)c1cc2cc(C(F)(F)P(=O)(O)O)ccc2s1)C(=O)N1C[C@@H](OCC(=O)NCCCCC#Cc2ccc3c(c2)C(=O)N(C2CCC(=O)NC2=O)C3=O)C[C@H]1C(=O)N1CCO[C@H](c2ccccc2)C1` (stereo partly drawn) [Compound 486, ((2-(((2S)-1-((2S,4S)-4-(2-((6-(2-(2,6-dioxopiperidin-3-yl)-1,3-dioxoisoindolin-5-yl)hex-5-yn-1-yl)amino)-2-oxoethoxy)-2-((R)-2-phenylmorpholine-4-carbonyl)pyrrolidin-1-yl)-3,3-dimethyl-1-oxobutan-2-yl)carbamoyl)benzo[b]thiophen-5-yl)difluoromethyl)phosphonic acid], the figure is more than 10 µM. For `CC(C)(C)[C@H](NC(=O)c1cc2cc(C(F)(F)P(=O)(O)O)ccc2s1)C(=O)N1Cc2cc(OCC(=O)NCC#Cc3cccc4c3C(=O)N(C3CCC(=O)NC3=O)C4=O)ccc2C[C@H]1C(=O)N1CCO[C@H](c2ccccc2)C1` (stereo partly drawn) [Compound 535, ((2-(((2S)-1-((3S)-7-(2-((3-(2-(2,6-dioxopiperidin-3-yl)-1,3-dioxoisoindolin-4-yl)prop-2-yn-1-yl)amino)-2-oxoethoxy)-3-((R)-2-phenylmorpholine-4-carbonyl)-3,4-dihydroisoquinolin-2(1H)-yl)-3,3-dimethyl-1-oxobutan-2-yl)carbamoyl)benzo[b]thiophen-5-yl)difluoromethyl)phosphonic acid], the DC50 lay within 0.1 to 1 µM. Turning to `CC(C)(C)[C@H](NC(=O)c1cc2cc(C(F)(F)P(=O)(O)O)ccc2s1)C(=O)N1CCN(C(=O)CC(=O)NCCCCCCCCC#Cc2cccc3c2C(=O)N(C2CCC(=O)NC2=O)C3=O)C[C@H]1C(=O)N1CCC[C@H](c2ccccc2)C1` (stereo partly drawn) [Compound 531, ((2-(((2S)-1-((2S)-4-(3-((10-(2-(2,6-dioxopiperidin-3-yl)-1,3-dioxoisoindolin-4-yl)dec-9-yn-1-yl)amino)-3-oxopropanoyl)-2-((R)-3-phenylpiperidine-1-carbonyl)piperazin-1-yl)-3,3-dimethyl-1-oxobutan-2-yl)carbamoyl)benzo[b]thiophen-5-yl)difluoromethyl)phosphonic acid], the half-maximal degradation concentration (DC50) was more than 10 µM.

With `Cc1cc([C@H](C(=O)N2C[C@H](O)C[C@H]2C(=O)N[C@@H](CC(=O)NCCCCCCCCNC(=O)CO[C@@H]2C[C@@H](C(=O)N(C)c3ccc(Br)cc3)N(C(=O)[C@@H](NC(=O)c3cc4cc(C(F)(F)P(=O)(O)O)ccc4s3)C(C)(C)C)C2)c2ccc(-c3scnc3C)cc2)C(C)C)on1` [Compound 423, ((2-(((S)-1-((2S,4R)-2-((4-bromophenyl)(methyl)carbamoyl)-4-(2-((8-((S)-3-((2S,4R)-4-hydroxy-1-((R)-3-methyl-2-(3-methylisoxazol-5-yl)butanoyl)pyrrolidine-2-carboxamido)-3-(4-(4-methylthiazol-5-yl)phenyl)propanamido)octyl)amino)-2-oxoethoxy)pyrrolidin-1-yl)-3,3-dimethyl-1-oxobutan-2-yl)carbamoyl)benzo[b]thiophen-5-yl)difluoromethyl)phosphonic acid], the DC50 is more than 10 µM.

Staying with this assay, now noted: MOLM-16 cells, numeric bound, read-out: DC50 S6 MOLM-16.
Consider `CC(C)(C)[C@H](NC(=O)c1cc2cc(C(F)(F)P(=O)(O)O)ccc2s1)C(=O)N1C[C@@H](OCCCCCCC#Cc2cccc3c2CN(C2CCC(=O)NC2=O)C3=O)C[C@H]1C(=O)N1CCOC(c2cccs2)C1` (some centres unmarked) [Compound 611], for which the DC50 is more than 0.3 µM.
